In patent US10660876B2, “Amino compounds for treatment of medical disorders” (Achillion Pharmaceuticals, Inc., priority 2015, dated 2020) one finds IC50 data, which are given here for 18 molecules.

Structures are written as SMILES.

By IC50 is commonly meant the concentration needed to halve the response being measured.

Sequence of Human Factor D (P00746 26-253): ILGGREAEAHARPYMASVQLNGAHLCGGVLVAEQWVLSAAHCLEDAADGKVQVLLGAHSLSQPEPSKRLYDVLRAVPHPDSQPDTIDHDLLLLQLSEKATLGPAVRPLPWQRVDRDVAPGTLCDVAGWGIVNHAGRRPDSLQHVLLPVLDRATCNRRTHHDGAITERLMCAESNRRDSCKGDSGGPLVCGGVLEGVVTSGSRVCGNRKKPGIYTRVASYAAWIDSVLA

The first test addresses Human Factor D (Homo sapiens (Human), UniProt P00746). Description: Human Factor D Assay. The settings on record: Table 1; Factor D purified from human serum, 80 nM, substrate Z-L-Lys-SBzl; read-out: IC50. The class given is biochemical. How it is done: Example 12. Human Factor D Assay
Human Factor D (purified from human serum, Complement Technology, Inc.) at 80 nM final concentration is incubated with test compound at various concentrations for 5 minutes at room temperature in 50 mM Tris, 1M NaCl, pH 7.5. A synthetic substrate Z-L-Lys-SBzl and DTNB (Ellman's reagent) are added to final concentrations of 100 μM each. Absorbance at 405 nm (A405) is recorded at 30 second intervals for 30 minutes using a microplate spectrophotometer. IC50 values are calculated by nonlinear regression of complement Factor D reaction rates as a function of test compound concentration.
As to `NC(=O)c1nn(CC(=O)N2C[C@H](F)C[C@H]2C(=O)Nc2cccc(-c3ccccc3Cl)c2F)c2ccc(Nc3cnc(C(F)(F)F)nc3)cc12` [Compound 14, 1-(2-((2S,4R)-2-(2′-chloro-2-fluorobiphenyl-3-ylcarbamoyl)-4-fluoropyrrolidin-1-yl)-2-oxoethyl)-5-(2-(trifluoromethyl)pyrimidin-5-ylamino)-1H-indazole-3-carboxamide], the IC50 is less than 1000 nM.

As to `CC(=O)c1cn(CC(=O)N2C[C@H](F)C[C@H]2C(=O)Nc2ccc3ncsc3c2)c2ccc(Nc3cncnc3)cc12` [Compound 56, (2S,4R)-1-(2-(3-acetyl-5-(pyrimidin-5-ylamino)-1H-indol-1-yl)acetyl)-N-(benzo[d]thiazol-6-yl)-4-fluoropyrrolidine-2-carboxamide], the IC50 is less than 1000 nM.

On to `N#Cc1cnc(Nc2ccc3c(c2)c(C(N)=O)nn3CC(=O)N2C[C@H](F)C[C@H]2C(=O)Nc2cccc(-c3ccccc3Cl)c2F)nc1` [Compound 13, 1-(2-((2S,4R)-2-(2′-chloro-2-fluorobiphenyl-3-ylcarbamoyl)-4-fluoropyrrolidin-1-yl)-2-oxoethyl)-5-(5-cyanopyrimidin-2-ylamino)-1H-indazole-3-carboxamide], for which the IC50 is less than 1000 nM.

`CC(=O)c1cn(CC(=O)N2C[C@H](F)C[C@H]2C(=O)Nc2cncc(Br)n2)c2ccc(Nc3cncnc3)cc12` [Compound 47, (2S,4R)-1-(2-(3-acetyl-5-(pyrimidin-5-ylamino)-1H-indol-1-yl)acetyl)-N-(6-bromopyrazin-2-yl)-4-fluoropyrrolidine-2-carboxamide]: the IC50 was less than 1000 nM.

Turning to `NC(=O)c1nn(CC(=O)N2C[C@H](F)C[C@H]2C(=O)Nc2cccc(Cl)n2)c2ccc(Nc3cccnn3)cc12` [Compound 11, 1-(2-((2S,4R)-2-(6-chloropyridin-2-ylcarbamoyl)-4-fluoropyrrolidin-1-yl)-2-oxoethyl)-5-(pyridazin-3-ylamino)-1H-indazole-3-carboxamide], the IC50 is less than 1000 nM.

On to `CC(=O)c1cn(CC(=O)N2C[C@H](F)C[C@H]2C(=O)Nc2ncc(Br)cn2)c2ccc(Nc3cncnc3)cc12` [Compound 44, (2S,4R)-1-(2-(3-acetyl-5-(pyrimidin-5-ylamino)-1H-indol-1-yl)acetyl)-N-(5-bromopyrimidin-2-yl)-4-fluoropyrrolidine-2-carboxamide], for which the IC50 was less than 1000 nM.

Consider `CC(=O)c1cn(CC(=O)N2C[C@H](F)C[C@H]2C(=O)Nc2cccc(Br)n2)c2ccc(Nc3cncnc3)cc12` [Compound 4, (2S,4R)-1-(2-(3-acetyl-5-(pyrimidin-5-ylamino)-1H-indol-1-yl)acetyl)-N-(6-bromopyridin-2-yl)-4-fluoropyrrolidine-2-carboxamide], for which the IC50 is less than 1000 nM.

Take `CC(=O)c1cn(CC(=O)N2C[C@H](F)C[C@H]2C(=O)Nc2ccccc2-c2nncn2C)c2ccc(Nc3cncnc3)cc12` [Compound 61, (2S,4R)-1-(2-(3-acetyl-5-(pyrimidin-5-ylamino)-1H-indol-1-yl)acetyl)-4-fluoro-N-(2-(4-methyl-4H-1,2,4-triazol-3-yl)phenyl) pyrrolidine-2-carboxamide]: the 50% inhibitory concentration (IC50) is greater than 10000 nM.

Turning to `CC(=O)c1cn(CC(=O)N2C[C@H](F)C[C@H]2C(=O)NC2CCN(c3ccn(C)n3)C2=O)c2ccc(Nc3cncnc3)cc12` (stereo partly drawn) [Compound 64, (2S,4R)-1-(2-(3-acetyl-5-(pyrimidin-5-ylamino)-1H-indol-1-yl)acetyl)-4-fluoro-N-(1-(1-methyl-1H-pyrazol-3-yl)-2-oxopyrrolidin-3-yl)pyrrolidine-2-carboxamide], the IC50 is less than 1000 nM.

For the molecule `CC(=O)c1cn(CC(=O)N2C[C@H](F)C[C@H]2C(=O)NCc2ccccn2)c2ccc(Nc3cncnc3)cc12` [Compound 17, (2S,4R)-1-(2-(3-acetyl-5-(pyrimidin-5-ylamino)-1H-indol-1-yl)acetyl)-4-fluoro-N-(pyridin-2-ylmethyl) pyrrolidine-2-carboxamide], the IC50 is less than 1000 nM.

As for `CC(=O)c1cn(CC(=O)N2C[C@H](F)C[C@H]2C(=O)N[C@H](C)c2oc3ccc(F)cc3c2C)c2ccc(Nc3cncnc3)cc12` [Compound 74, (2S,4R)-1-(2-(3-acetyl-5-(pyrimidin-5-ylamino)-1H-indol-1-yl)acetyl)-4-fluoro-N-((R)-1-(5-fluoro-3-methyl-benzofuran-2-yl)ethyl) pyrrolidine-2-carboxamide], the IC50 is greater than 10000 nM.

Take `CC(=O)c1cn(CC(=O)N2C[C@H](F)C[C@H]2C(=O)N[C@@H]2CCC[C@H]2O)c2ccc(Nc3cncnc3)cc12` [Compound 69, (2S,4R)-1-(2-(3-acetyl-5-(pyrimidin-5-ylamino)-1H-indol-1-yl)acetyl)-4-fluoro-N-((1R,2R)-2-hydroxy-cyclopentyl) pyrrolidine-2-carboxamide]: the IC50 is 1000 to 10000 nM.

Regarding `CC(=O)c1cn(CC(=O)N2C[C@H](F)C[C@H]2C(=O)Nc2cccc(-c3ccccc3Cl)c2F)c2ccc(Nc3cncnc3)cc12` [Compound 3, (2S,4R)-1-(2-(3-acetyl-5-(pyrimidin-5-ylamino)-1H-indol-1-yl)acetyl)-N-(2′-chloro-2-fluorobiphenyl-3-yl)-4-fluoropyrrolidine-2-carboxamide], the IC50 is less than 1000 nM.

With `CC(=O)c1cn(CC(=O)N2C[C@H](F)C[C@H]2C(=O)Nc2cc(C)nc3nc(C(F)(F)F)nn23)c2ccc(Nc3cncnc3)cc12` [Compound 41, (2S,4R)-1-(2-(3-acetyl-5-(pyrimidin-5-ylamino)-1H-indol-1-yl)acetyl)-4-fluoro-N-(5-methyl-2-(trifluoromethyl)-[1,2,4]triazolo[1,5-a]pyrimidin-7-yl)pyrrolidine-2-carboxamide], the IC50 was greater than 10000 nM.

Regarding `CC(=O)c1cn(CC(=O)N2C[C@H](F)C[C@H]2C(=O)Nc2ccc3[nH]c(C)c(C)c3c2)c2ccc(Nc3cncnc3)cc12` [Compound 38, (2S,4R)-1-(2-(3-acetyl-5-(pyrimidin-5-ylamino)-1H-indol-1-yl)acetyl)-N-(2,3-dimethyl-1H-indol-5-yl)-4-fluoropyrrolidine-2-carboxamide], the IC50 is less than 1000 nM.

Regarding `CC(=O)c1cn(CC(=O)N2C[C@H](F)C[C@H]2C(=O)Nc2ccc(O)cn2)c2ccc(Nc3cncnc3)cc12` [Compound 70, (2S,4R)-1-(2-(3-acetyl-5-(pyrimidin-5-ylamino)-1H-indol-1-yl)acetyl)-4-fluoro-N-(5-hydroxypyridin-2-yl)pyrrolidine-2-carboxamide], the IC50 fell in the range of 1000 to 10000 nM.

Staying with this test, now noted: Table 2; Factor D purified from human serum, 80 nM, substrate Z-L-Lys-SBzl; read-out: IC50.
Take `COCCOc1ncc(Nc2ccc3c(c2)c(C(C)=O)cn3CC(=O)N2C[C@H](F)C[C@H]2C(=O)Nc2cccc(Br)n2)cn1` [Compound 76, (2S,4R)-1-(2-(3-acetyl-5-(2-(2-methoxyethoxy)pyrimidin-5-ylamino)-1H-indol-1-yl)acetyl)-N-(6-bromopyridin-2-yl)-4-fluoropyrrolidine-2-carboxamide]: the IC50 is less than 1000 nM.

The test is the same for the next values; noted with them: Table 3; Factor D purified from human serum, 80 nM, substrate Z-L-Lys-SBzl; read-out: IC50 (Stars).
With `CC(=O)c1cn(CC(=O)N2C[C@H](F)C[C@H]2C(=O)NCc2ccccc2)c2ccc(Nc3cncnc3)cc12` [Compound 153, (2S,4R)-1-(2-(3-acetyl-5-(pyrimidin-5-ylamino)-1H-indol-1-yl)acetyl)-N-benzyl-4-fluoropyrrolidine-2-carboxamide], the IC50 is less than 1000 nM.
